Laboratory results: patent publication US5126368A, “Octenoic acid derivatives useful as thromboxane A2 inhibitors” (Imperial Chemical Industries plc, priority 1985, dated 1992)

Experiments:
[1] = tested on: rabbit aortal strip; assay: Test (a): rabbit aortal strip model (Piper and Vane); format: cell-based; details: agonist TXA2 or U46619
Method: (§1) As stated earlier, the compound of formula I is an antagonist of one or more of the actions of TXA2, for example certain of its actions on blood platelets, the vasculature and/or the lung.
(a) The rabbit aortal strip model devised by Piper and Vane (Nature, 1969, 223, 29-35) using as agonist a freshly prepared sample of TXA2, generated by addition of arachidonic acid (25 μg) to citrated, platelet rich rabbit plasma (250 μl) and allowing the mixture to aggregate fully over 90 seconds before use; alternatively the TXA2 mimetic agent known as U46619 (described by R.L. Jones et alia in "Chemistry, Biochemistry and Pharmacological Activity of Prostanoids" edited by S.M. Roberts and F. Scheinmann, at page 211; Pergamon Press, 1979) may be used as the agonist;

[2] = molecular target: T1, human, citrated, platelet-rich plasma (Homo sapiens, UniProt P21731); assay: Test (b): U46619-induced aggregation of human citrated platelet-rich plasma (Born); format: cell-based; details: agonist U46619, averaged over several concentrations
T1 construct: aggregating human, citrated, platelet-rich plasma; endogenous in cells; host or cells: human platelets in citrated platelet-rich plasma
T1 sequence (P21731 1-343): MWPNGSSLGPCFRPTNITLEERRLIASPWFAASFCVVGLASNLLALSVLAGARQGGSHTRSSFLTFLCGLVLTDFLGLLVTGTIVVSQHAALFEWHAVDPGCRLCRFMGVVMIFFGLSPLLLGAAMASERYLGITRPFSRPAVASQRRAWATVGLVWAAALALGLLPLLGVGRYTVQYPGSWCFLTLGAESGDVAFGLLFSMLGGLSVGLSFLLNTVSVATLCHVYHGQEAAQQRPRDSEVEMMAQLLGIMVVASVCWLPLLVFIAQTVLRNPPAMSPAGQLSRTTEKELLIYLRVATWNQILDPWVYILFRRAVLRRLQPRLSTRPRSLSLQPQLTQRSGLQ
Source text: as §1
(b) a blood platelet aggregation test based on that described by Born (Nature, 1962, 194, 927-929) and involving:
(i) aggregating human, citrated, platelet-rich plasma by addition of the TXA2 mimetic agent U46619 so that a dose-response curve is generated;
(ii) generating a dose-response curve for U46619 stimulated platelet aggregation in the presence of increasing amounts of test compound (generally in the range 10^-5 M to 10^-10 M); and
(iii) calculating a KB value indicating potency of TXA2 antagonism for the test compound, averaged over several concentrations, from the calculated 50% response value for U46619 aggregation in the presence and absence of test compound; and […]

[3] = tested on: U46619 induced bronchoconstriction; assay: Test (c): U46619-induced bronchoconstriction, Konzett-Rossler anaesthetised guinea-pig model; format: in vivo; details: 2 hours after oral dosing at 0.05 mg/kg, U46619 i.v.
Source text: (c) a bronchoconstriction test involving measuring the inhibition by a test compound of the bronchoconstriction induced in the Konzett-Rossler, anaesthetised guinea-pig model (as modified by Collier and James, Brit. J. Pharmacol., 1967, 30, 283-307) by intravenous administration of the TXA2 mimetic agent, U46619 and involving:
(i) obtaining a cumulative dose-response curve to U46619 induced bronchoconstriction by intravenous administration of constant volumes of increasing concentrations of U46619 (0.2-4 μg/kg) in physiological saline solution and expressing bronchoconstriction as the maximum of that theoretically obtainable with no air flow to the test animal;
(ii) generating a cumulative dose-response curve to U46619 induced bronchoconstriction at 30 minute intervals for 3 hours after oral dosing of test compound; and
(iii) calculating a dose-ratio for the test compound (that is the ratio of concentration of U46619 required to cause 50% bronchoconstriction in the presence and absence of test compound) indicating the potency of TXA2 antagonism.

[4] = tested on: U46619 induced hypertension; assay: Test (d): U46619-induced hypertension in anaesthetised rats; format: in vivo, rat (Alderley Park strain); details: 1 hour after an oral dose of 5 mg/kg
Method: (d) Male rats (Alderley Park strain) are anaesthetised with sodium pentobarbital and blood pressure is monitored at the carotid artery. The TXA2 mimetic agent U46619 is administered intravenously at 5 μg/kg via the jugular vein to produce a 20-30 mm Hg ([…]) increase in systolic pressure. The procedure is repeated twice to establish reproducibility of the effect. A test compound is then administered either intravenously (via the jugular vein) or orally (via a cannula) directly into the stomach and the animal is challenged with U46619, five minutes after dosing with test compound and then successively every ten minutes until the hypertensive effect of U46619 is no longer blocked.

Kb [2]	Structure (SMILES)	pA2 [1]	dose ratio [3]	inhibition of U46619 induced hypertension [4]
3.35 µM	O=C(O)CCCC/C=C\C[C@@H]1CO[C@H](C(F)(F)F)O[C@@H]1c1ccccc1O (relative stereo) [compound of formula I, 6(Z)-8-([2,4,5-cis]-4-o-hydroxyphenyl-2-trifluoromethyl-1,3-dioxan-5-yl)octenoic acid]	7.75±0.05	> 60	> 70%
–	O=C(O)CCC/C=C\C[C@@H]1CO[C@H](C(F)(F)F)O[C@@H]1c1ccccc1 (relative stereo) [5(Z)-7-([2,4,5-cis]-4-phenyl-2-trifluoromethyl-1,3-dioxan-5-yl)heptenoic acid, reference compound]	6.52±0.02	–	–
